Assays:
1A9 = test: Cytotoxicity against ovarian cancer cell line (1A-9) of humans was determined; assay type: functional, cell-based; conditions: Homo sapiens
A9 [1] = test: Cytotoxicity against Beta- tubulin mutant expressing […] cell line of humans was tested; assay type: functional, cell-based; conditions: Homo sapiens
KB [2] = test: The compound was tested for its cytotoxic concentration required to inhibit the replication of human tumor nasopharynx (KB-VIN) cell lines which is drug resistant; assay type: functional, cell-based
KB [3] = test: The compound was tested for its cytotoxic concentration required to inhibit the replication of human tumor nasopharynx (KB) cell lines; assay type: functional, cell-based
A9 [4] = test: Percentage inhibition at higher concentration (100 nM) against Beta- tubulin mutant expressing […] cell line; assay type: functional, Homo sapiens

Row | Compound | IC50 (1A9) [nM] | IC50 (A9 [1]) [nM] | IC50 (KB [2]) [nM] | IC50 (KB [3]) [nM] | inhibition at 0.1 µM (A9 [4]) [%]
1 | COc1ccc2c(c1)[C@@H]1O[C@@H]1Cc1cc(OC)c(OC)c(OC)c1-2 | 82 | > 100 | 62 | 62 | 17
2 | COc1ccc2c(c1)C=CCc1cc(OC)c(OC)c(OC)c1-2 | 60 | 78 | 68 | 60 | 
3 | COc1cc2c(c(OC)c1OC)-c1ccc(OC)c(=O)cc1[C@@H](NC(C)=O)CC2 [COLCHICINE] | 11.9 | 13.8 | > 100 | 11.9 | 
4 | COc1ccc2c(c1)[C@@H](NC(=O)CCl)CCc1cc(OC)c(OC)c(OC)c1-2 | 2.7 | 13.8 | 9.1 | 12 | 
